For the experiment, the system named is ob/ob mice. As to conditions: cohort 2 (HFD conditioning, then 50 mg/kg), relative to untreated controls.

For the compound `N#Cc1ccc2nnc(C(=O)N3CCC(c4cccc(F)c4C(F)(F)F)CC3)n2c1` [Compound 2, 3-(4-(3-fluoro-2-(trifluoromethyl)phenyl)piperidine-1-carbonyl)-[1,2,4]triazolo[4,3-a]pyridine-6-carbonitrile], the NASH fibrosis scores entry was “reduction” and the “amount of bridging fibrosis” value is “decrease”.

Source of the values: US12714700B2 (priority 2017, dated 2026).
